Experimental data: US20260191836A1, “SOLID PREPARATION CONTAINING OXIDIZED CLOPIDOGREL AND PREPARATION METHOD THEREFOR” (CHENGDU SHIBEIKANG BIOMEDICAL TECHNOLOGY CO., LTD., priority 2022, published 2026)
“Also recorded” adds a separate entry of the source.

Assay: Properties of the drug substance (solubility, BCS class, stability)
Type: physicochemical

BCS biopharmaceutical classification: low-solubility and high-permeability | solubility in acetonitrile (acetonitrile): soluble | solubility in methanol (methanol): slightly soluble | solubility in water (water): almost insoluble
SMILES: COC(=O)[C@H](c1ccccc1Cl)N1CC[C@@H]2SC(=O)C=C2C1 [(7aS, 2′S)-2-oxo-clopidogrel, methyl (S)-2-(2-chlorophenyl)-2-((S)-2-oxo-2,6,7,7a-tetrahydrothieno[3,2-c]pyridin-5 (4H)-yl)acetate]
stability of the drug substance (in words): extremely prone to oxidative degradation; also recorded: instability under high temperature, acid and alkali conditions
